Measurements: the supplement of paper PMC10307832

How the values were obtained:
Assay in all cases: relative viability (nuclei count vs DMSO), 5 days (fraction); higher = more cells survive
HCC-366 = tested on: HCC-366
Procedure, shortened: (§1)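 Medians of duplicate plates are given as relative viability. That measure is the nuclei count in treated wells divided by the count in vehicle wells. Counts were taken on 4× images of lung cancer cell lines in 1536-well plates, 5 days after pin-tool dosing the day after seeding with one drug alone or a fixed anchor-drug dose plus five library-drug doses (not always all listed) in √10 steps.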

NCI-H1993 = tested on: NCI-H1993
Procedure, shortened: as §1

ChaGo-K-1 = tested on: ChaGo-K-1
Procedure, shortened: as §1

EMC-BAC-2 = tested on: EMC-BAC-2
Procedure, shortened: as §1

NCI-H2126 = tested on: NCI-H2126
Procedure, shortened: as §1

NCI-H2228 = tested on: NCI-H2228
Procedure, shortened: as §1

LC-2-ad = tested on: LC-2-ad
Procedure, shortened: as §1

A-427 = tested on: A-427
Procedure, shortened: as §1

NCI-H1944 = tested on: NCI-H1944
Procedure, shortened: as §1

NCI-H838 = tested on: NCI-H838
Procedure, shortened: as §1

UMC-11 = tested on: UMC-11
Procedure, shortened: as §1

COR-L23 = tested on: COR-L23
Procedure, shortened: as §1

NCI-H23 = tested on: NCI-H23
Procedure, shortened: as §1

NCI-H2009 = tested on: NCI-H2009
Procedure, shortened: as §1

NCI-H2405 = tested on: NCI-H2405
Procedure, shortened: as §1

ABC-1 = tested on: ABC-1
Procedure, shortened: as §1

HARA = tested on: HARA
Procedure, shortened: as §1

NCI-H1734 = tested on: NCI-H1734
Procedure, shortened: as §1

NCI-H1793 = tested on: NCI-H1793
Procedure, shortened: as §1

SK-LU-1 = tested on: SK-LU-1
Procedure, shortened: as §1

HCC-15 = tested on: HCC-15
Procedure, shortened: as §1

HCC-78 = tested on: HCC-78
Procedure, shortened: as §1

NCI-H2023 = tested on: NCI-H2023
Procedure, shortened: as §1

CC1(C)CCC(c2ccc(Cl)cc2)=C(CN2CCN(c3ccc(C(=O)NS(=O)(=O)c4ccc(N[C@H](CCN5CCOCC5)CSc5ccccc5)c(S(=O)(=O)C(F)(F)F)c4)cc3)CC2)C1 [Navitoclax] + Cc1nc(Nc2ncc(C(=O)Nc3c(C)cccc3Cl)s2)cc(N2CCN(CCO)CC2)n1 [Dasatinib] (partner 0.075 µM)
relative viability (HCC-366; first compound 0.005 µM): 0.587 | relative viability (HCC-366; first compound 0.01581 µM): 0.689 | relative viability (HCC-366; first compound 0.1581 µM): 0.709 | relative viability (HCC-366; first compound 0.5 µM): 0.646 | relative viability (NCI-H1993; first compound 0.005 µM): 0.674 | relative viability (NCI-H1993; first compound 0.01581 µM): 0.689 | relative viability (NCI-H1993; first compound 0.05 µM): 0.467 | relative viability (NCI-H1993; first compound 0.1581 µM): 0.625 | relative viability (NCI-H1993; first compound 0.5 µM): 0.643 | relative viability (ChaGo-K-1; first compound 0.005 µM): 0.479 | relative viability (ChaGo-K-1; first compound 0.01581 µM): 0.627 | relative viability (ChaGo-K-1; first compound 0.05 µM): 0.322 | relative viability (ChaGo-K-1; first compound 0.1581 µM): 0.639 | relative viability (ChaGo-K-1; first compound 0.5 µM): 0.666 | relative viability (EMC-BAC-2; first compound 0.005 µM): 0.29 | relative viability (EMC-BAC-2; first compound 0.01581 µM): 0.354 | relative viability (EMC-BAC-2; first compound 0.05 µM): 0.312 | relative viability (EMC-BAC-2; first compound 0.1581 µM): 0.267 | relative viability (EMC-BAC-2; first compound 0.5 µM): 0.288 | relative viability (NCI-H2126; first compound 0.005 µM): 0.601 | relative viability (NCI-H2126; first compound 0.01581 µM): 0.709 | relative viability (NCI-H2126; first compound 0.05 µM): 0.644 | relative viability (NCI-H2126; first compound 0.1581 µM): 0.509 | relative viability (NCI-H2126; first compound 0.5 µM): 0.569 | relative viability (NCI-H2228; first compound 0.005 µM): 0.519 | relative viability (NCI-H2228; first compound 0.01581 µM): 0.525 | relative viability (NCI-H2228; first compound 0.1581 µM): 0.592 | relative viability (NCI-H2228; first compound 0.5 µM): 0.517 | relative viability (LC-2-ad; first compound 0.005 µM): 0.442 | relative viability (LC-2-ad; first compound 0.01581 µM): 0.812 | relative viability (LC-2-ad; first compound 0.05 µM): 0.691 | relative viability (LC-2-ad; first compound 0.1581 µM): 0.406 | relative viability (LC-2-ad; first compound 0.5 µM): 0.342 | relative viability (A-427; first compound 0.005 µM): 0.784 | relative viability (A-427; first compound 0.01581 µM): 0.694 | relative viability (A-427; first compound 0.05 µM): 0.71 | relative viability (A-427; first compound 0.1581 µM): 0.734 | relative viability (A-427; first compound 0.5 µM): 0.643 | relative viability (NCI-H1944; first compound 0.005 µM): 0.235 | relative viability (NCI-H1944; first compound 0.01581 µM): 0.235 | relative viability (NCI-H1944; first compound 0.05 µM): 0.268 | relative viability (NCI-H1944; first compound 0.1581 µM): 0.282 | relative viability (NCI-H1944; first compound 0.5 µM): 0.398 | relative viability (NCI-H838; first compound 0.005 µM): 0.267 | relative viability (NCI-H838; first compound 0.01581 µM): 0.334 | relative viability (NCI-H838; first compound 0.05 µM): 0.26 | relative viability (NCI-H838; first compound 0.1581 µM): 0.238 | relative viability (NCI-H838; first compound 0.5 µM): 0.36 | relative viability (UMC-11; first compound 0.005 µM): 0.451 | relative viability (UMC-11; first compound 0.01581 µM): 0.464 | relative viability (UMC-11; first compound 0.05 µM): 0.502 | relative viability (UMC-11; first compound 0.1581 µM): 0.471 | relative viability (UMC-11; first compound 0.5 µM): 0.324 | relative viability (COR-L23; first compound 0.005 µM): 0.509 | relative viability (COR-L23; first compound 0.01581 µM): 0.595 | relative viability (COR-L23; first compound 0.05 µM): 0.521 | relative viability (COR-L23; first compound 0.1581 µM): 0.447 | relative viability (COR-L23; first compound 0.5 µM): 0.556 | relative viability (NCI-H23; first compound 0.005 µM): 0.841 | relative viability (NCI-H23; first compound 0.01581 µM): 0.79 | relative viability (NCI-H23; first compound 0.05 µM): 0.627 | relative viability (NCI-H23; first compound 0.1581 µM): 0.705 | relative viability (NCI-H23; first compound 0.5 µM): 0.779 | relative viability (NCI-H2009; first compound 0.005 µM): 0.232 | relative viability (NCI-H2009; first compound 0.01581 µM): 0.383 | relative viability (NCI-H2009; first compound 0.05 µM): 0.264 | relative viability (NCI-H2009; first compound 0.1581 µM): 0.336 | relative viability (NCI-H2009; first compound 0.5 µM): 0.319 | relative viability (NCI-H2405; first compound 0.005 µM): 0.189 | relative viability (NCI-H2405; first compound 0.01581 µM): 0.209 | relative viability (NCI-H2405; first compound 0.05 µM): 0.146 | relative viability (NCI-H2405; first compound 0.1581 µM): 0.196 | relative viability (NCI-H2405; first compound 0.5 µM): 0.132 | relative viability (ABC-1; first compound 0.005 µM): 0.588 | relative viability (ABC-1; first compound 0.01581 µM): 0.644 | relative viability (ABC-1; first compound 0.05 µM): 0.49 | relative viability (ABC-1; first compound 0.1581 µM): 0.555 | relative viability (ABC-1; first compound 0.5 µM): 0.61 | relative viability (HARA; first compound 0.005 µM): 0.308 | relative viability (HARA; first compound 0.01581 µM): 0.277 | relative viability (HARA; first compound 0.1581 µM): 0.29 | relative viability (HARA; first compound 0.5 µM): 0.242 | relative viability (NCI-H1734; first compound 0.005 µM): 0.41 | relative viability (NCI-H1734; first compound 0.01581 µM): 0.544 | relative viability (NCI-H1734; first compound 0.1581 µM): 0.425 | relative viability (NCI-H1734; first compound 0.5 µM): 0.554 | relative viability (NCI-H1793; first compound 0.005 µM): 0.409 | relative viability (NCI-H1793; first compound 0.01581 µM): 0.325 | relative viability (NCI-H1793; first compound 0.1581 µM): 0.293 | relative viability (NCI-H1793; first compound 0.5 µM): 0.147 | relative viability (SK-LU-1; first compound 0.005 µM): 0.182 | relative viability (SK-LU-1; first compound 0.01581 µM): 0.169 | relative viability (SK-LU-1; first compound 0.05 µM): 0.193 | relative viability (SK-LU-1; first compound 0.1581 µM): 0.203 | relative viability (SK-LU-1; first compound 0.5 µM): 0.0932 | relative viability (HCC-15; first compound 0.005 µM): 0.619 | relative viability (HCC-15; first compound 0.01581 µM): 0.643 | relative viability (HCC-15; first compound 0.05 µM): 0.577 | relative viability (HCC-15; first compound 0.1581 µM): 0.572 | relative viability (HCC-15; first compound 0.5 µM): 0.392 | relative viability (HCC-78; first compound 0.005 µM): 0.405 | relative viability (HCC-78; first compound 0.01581 µM): 0.351 | relative viability (HCC-78; first compound 0.1581 µM): 0.403 | relative viability (HCC-78; first compound 0.5 µM): 0.381 | relative viability (NCI-H2023; first compound 0.005 µM): 0.488 | relative viability (NCI-H2023; first compound 0.01581 µM): 0.594 | relative viability (NCI-H2023; first compound 0.05 µM): 0.621 | relative viability (NCI-H2023; first compound 0.1581 µM): 0.648 | relative viability (NCI-H2023; first compound 0.5 µM): 0.561
